Test results from US20230235290A1, “RECOMBINANT CARDIOMYOCYTES AND CARDIOMYOCYTE CELL LINES EXPRESSING HERG” (The Governors of the University of Alberta, priority 2016, published 2023).

Assays:
[1] = SetuBlue cell viability (cell proliferation) assay, fluorometric, on hMYO-hERG cells; type: cell-based, human; conditions: human; hMYO-hERG cells, 48 hours treatment, fluorescence 530/590 nm, GraphPad Prism
Method: (§1) Ninety-six (96) well plate(s) were seeded with hMYO-hERG cells containing approximately 1×10^4 cells/well. The plates were first incubated for 24 hours at 37° C., 5% CO2, followed by incubation for 48 hours at 28° C., 5% CO2. The wells were then treated with compound(s) of interest for 48 hours at standard cell cultural conditions. A negative control medium without cells was included to determine background signal.
(§2) The cells were then assayed for toxicity using a SetuBlue™ Cell Proliferation Assay Kit (Fluorometric) (BioIntersect, Catalog #F6009-2500-A). This kit uses a Blue indicator dye, Resazurin, to measure the metabolic capacity of cells. Resazurin is a non-fluorescent, cell permeable and non-toxic compound. Viable cells efficiently reduce the Blue indicator dye to resorufin, which is highly fluorescent and an indicator of cell viability.
(§3) The SetuBlue cell proliferation assay was performed as follows. The old media was aspirated and replaced with fresh 100 μl medium containing 10% volume of SetuBlue reagent containing the Blue indicator dye. The plates were incubated using standard cultural conditions for 1-4 hrs. The plates were than shaken for 10-20 seconds before recording fluorescence at 530/590 nm in PerkinElmer EnSpire® multimode plate reader. The relative fluorescence unit (“RFU”) value of each control well was subtracted from all RFU value to yield corrected RFU values. The corrected RFU values at 530/590 nm (Y axis, Log10 scale) were plotted against concentration of test compound (X axis). The CC50 value were determined by locating the X-axis value corresponding to one-half the maximum (plateau) RFU value using GraphPad Prism software.

hMYO-hERG cells = assay: as above; type: cell-based, human
Method: as §1, §2, §3

hERG = hERG (Homo sapiens, UniProt Q12809); conditions: literature statement; cited from earlier work
Sequence of hERG (Q12809 whole entry): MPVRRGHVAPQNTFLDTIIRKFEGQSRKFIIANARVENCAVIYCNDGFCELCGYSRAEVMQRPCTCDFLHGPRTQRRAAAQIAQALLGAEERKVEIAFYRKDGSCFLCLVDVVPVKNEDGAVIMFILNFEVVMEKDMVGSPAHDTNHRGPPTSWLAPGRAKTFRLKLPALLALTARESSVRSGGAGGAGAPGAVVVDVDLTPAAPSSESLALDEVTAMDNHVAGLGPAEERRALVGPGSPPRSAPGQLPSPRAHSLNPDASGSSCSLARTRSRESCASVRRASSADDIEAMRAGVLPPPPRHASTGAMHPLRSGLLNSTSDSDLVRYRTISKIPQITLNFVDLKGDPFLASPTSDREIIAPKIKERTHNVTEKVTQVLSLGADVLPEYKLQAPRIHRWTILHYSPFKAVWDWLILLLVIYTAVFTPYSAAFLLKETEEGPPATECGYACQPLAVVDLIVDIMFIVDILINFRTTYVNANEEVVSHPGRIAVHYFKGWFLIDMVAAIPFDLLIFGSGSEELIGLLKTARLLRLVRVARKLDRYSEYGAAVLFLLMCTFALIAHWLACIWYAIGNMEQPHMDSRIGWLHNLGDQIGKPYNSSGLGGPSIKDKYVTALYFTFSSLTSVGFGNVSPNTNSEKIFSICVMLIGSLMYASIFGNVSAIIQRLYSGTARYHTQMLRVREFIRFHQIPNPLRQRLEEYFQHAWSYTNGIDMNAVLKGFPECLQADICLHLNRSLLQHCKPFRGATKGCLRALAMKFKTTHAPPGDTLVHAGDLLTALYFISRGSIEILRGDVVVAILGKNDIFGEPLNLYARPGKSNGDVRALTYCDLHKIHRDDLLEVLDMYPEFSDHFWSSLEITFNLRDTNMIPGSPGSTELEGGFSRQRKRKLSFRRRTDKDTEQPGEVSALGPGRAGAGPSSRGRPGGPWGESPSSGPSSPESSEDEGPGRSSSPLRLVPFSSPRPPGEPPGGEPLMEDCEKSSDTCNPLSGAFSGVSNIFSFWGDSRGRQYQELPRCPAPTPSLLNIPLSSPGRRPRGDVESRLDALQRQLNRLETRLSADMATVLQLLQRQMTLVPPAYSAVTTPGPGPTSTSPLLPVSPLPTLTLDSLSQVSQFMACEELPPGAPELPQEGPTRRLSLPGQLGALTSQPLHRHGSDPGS

Compound	CC50 at 48 h [1] [µM]	concentrations at which cardiotoxic on the hMYO-hERG cell line (hMYO-hERG cells; hMYO-hERG cells, 48 hours treatment, FIG. 12A)	cardiotoxicity (known) (hERG)	hERG inhibitory activity (known) (hERG)	cardiotoxicity on the hMYO-hERG cells (hMYO-hERG cells; at concentrations as high as 400 μM, compared to control vehicle at 400 μM)
COc1cccc2c1C(=O)c1c(O)c3c(c(O)c1C2=O)C[C@@](O)(C(=O)CO)C[C@@H]3O[C@H]1C[C@H](N)[C@H](O)[C@H](C)O1 [doxorubicin]	42.3	above 50 μM	long-term cardiotoxicity	only slight effects on hERG	
C=C[C@H]1C[N@@]2CC[C@H]1C[C@@H]2[C@@H](O)c1ccnc2ccc(OC)cc12 [quinidine]					not significantly cardiotoxic
